Reference: US20230044304A1, “Nitric oxide generation, dilution, analysis, and topical application compositions, systems, apparatus and methods” (SYK Technologies LLC, priority 2010, published 2023)
“Also recorded” adds a separate entry of the source.

Assays:
[1] = tested on: bacteria on a surface, such as a person's skin; experiment: Nitric oxide dose required to kill bacteria on a surface
[2] = tested on: bacteria on skin of hands; experiment: Hand exposed to nitric oxide gas in a bag versus DIAL antibacterial soap, zone dilution plating; assay type: in vivo, human
Source text: An experiment 46 used to determine the anti-microbial effectiveness of nitric oxide is illustrated in FIG. 72. In the experiment, five volunteers were selected 48. From a first hand of each volunteer, a technician using sterile gloves collected 50 a sample. This was accomplished by rubbing the back of the volunteer's hand with a sterile cotton collection swab for ten seconds. The swab was then applied 52 to a nutrient agar petri dish using the five corner or zone dilution method.
The five corner or zone dilution method involves mechanically diluting bacteria on a streak (blood agar) plate by sequentially spreading the bacteria across the plate in each of five zones. As the concentration of bacteria increases so do the number of zones containing bacteria. Bacteria on agar plate become visible as distinct circular colonies. Each colony represents an individual cell which has divided repeatedly to form a patch. The number of bacteria can be estimated by counting the number of patches or how far the bacteria is diluted by streaking it on the agar plate through the five zones.
After the sample was collected 50, the first hand was cleaned 54 using nitric oxide. This was done by placing the hand of the volunteer into a one-gallon plastic freezer bag. The bag was then inflated with nitric oxide through tubing attached to a portable nitric oxide generator. […]

Compound: [N]=O [nitric oxide]
- dose required to kill bacteria on a surface [1]: ≥ 320 ppm
- bacterial colony count compared with washing with antibacterial soap ([2]; 1,000 ppm nitric oxide for fifteen minutes versus DIAL antibacterial soap for 2 minutes, five volunteers): superior to soaps; also recorded: lower bacterial colony count
- colony counts of bacteria exposed to nitric oxide ([2]; experiments by applicant on healthy skin): substantial reductions in colony counts
